Test results: patent publication US7919579B2, “Imaging and therapeutic targeting of prostate and bladder tissues” (The Board of Regents of the University of Texas System, priority 2006, dated 2011)
No end group written: not given here. *: point of attachment. FITC = O=C1OC2(c3ccc(O)cc3Oc3cc(O)ccc32)c2ccc(NC(=S)*)cc21

Experiments:
[1] = system: R11 uptake by bladder cancer cells; experiment: inhibitor and GAG competition of R11 uptake in bladder cancer cells; assay type: cell-based, human; conditions: for competition of R11 uptake by GAGs: various concentrations of GAG with 5 μM R11, 30 min
Method: FIGS. 10A-C—Determination of primary interaction molecule for R11 uptake in several bladder cancer cells. Human bladder cancer cells were pre-treated with various inhibitors (FIG. 10A: EIPA; FIG. 10B: Toxin B) 2 h and then incubated with 5 μM CPPs for 30 min before harvesting cell for determining cellular uptake. For competition assay, various concentrations of GAG's and 5 μM R9, R11, or R13 were added into cells for 30 min before harvesting cell for determining cellular uptake (FIG. 10C). Relative uptake was determined based on control (=1).
In order to define R11 as a bladder-specific molecular probe, it is critical to unveil the mechanism of R11 uptake. […] Furthermore, they examined a variety of glycosaminoglycans (GAGs) commonly detected in bladder wall (De Klerk, 1985) for their abilities to block the R11 uptake.

[2] = system: PCa cells (LNCaP, C4-2, LAPC4 and PC3); experiment: uptake of FITC-tagged CPPs by PCa cells (fluorometer); assay type: cell-based; conditions: four PCa cells; 30 minutes
Method: Cell culture and peptide incubation. All PCa cell lines (LNCaP, C4-2, LAPC4 and PC3) were maintained as described previously (Zhou et al., 2005). To determine the peptide uptake, 1×10^5 cells per well were plated in a 12-well plate. Next day, the culture medium was replaced with RPMI medium supplemented with 0.5% FBS (Invitrogen, Carlsbad, Calif.) containing different concentrations fluorescence (FITC)-tagged peptides and incubation was carried out at the indicated time. For determining cellular location of peptide, cells were cultured overnight in slide chamber at a density of 25×10^4/cm^2. The FITC tagged peptides were incubated for 30 minutes in the presence of RPMI medium supplemented with 0.5% of FBS prior to fluorescence microscopy.
Fluorescence intensity determination and Fluorescence microscopy.
Screening of the most efficient CPP uptake by prostate cancer (PCa) cell lines. To deliver small peptide into target cells, CPP was employed as a delivery system. Five different CPPs were synthesized including TAT (amino acid 49-57), Penetratin (Antennapedia 43-58) (PENE), KALA peptide, poly-arginine (R11) and poly-lysine (K11). All the CPPs were incorporated with a FITC-labeled glycine at their N-terminal ends. […] To determine the uptake quantitatively, fluorometer was used to measure the intensity of each CPP per cell basis. To rule out the possible artifacts such as CPP only associated with the cell surface and the pH variation from different organelles, cells were trypsinized and washed extensively with PBS, and a buffer with neutral pH was used in this experiment. […] In general, the uptake efficiency of five different CPPs tested can be considered as R11>>KALA≧TAT≧PENE≧K11 among four PCa cells.

LNCaP [3] = experiment: cell growth assay (MTT), serum or DHT-induced proliferation; assay type: cell-based; conditions: 5 μM peptide, 5% FBS or 10 nM DHT, MTT 4 days
Method: (§1) FIGS. 3A-B—Inhibitory effect of R11PPL on serum and androgen-induced cell proliferation of PCa. LNCaP (FIG. 3A) or C4-2 cells (FIG. 3B) were incubated with 5 μM R11PPL, R11AAL or without peptide 3 hours before adding serum or DHT (10 nM) and relative cell number was determined by MTT assay. All the experiments were carried out in quadruplicates and repeated at least twice. Each column represents mean±SD in triplicate.
(§2) Cell growth assay and cell cycle analysis. Cells were plated in 96-well plate at a density of 10^3 per well in T-medium supplemented with 5% charcoal-stripped FBS for overnight. Cells were incubated with or without indicated peptides (5 μM) for 3 hours in the presence of T-medium supplemented with 0.5% charcoal-stripped FBS. Subsequently, cells were replaced with T-medium containing either 5% FBS or 10 nM dihydrotestosterone (DHT). The peptides were changed every 2 days. The cell proliferation was determined 4 days after the initial peptide treatment by using 3-(4,5-dimethylthiazol-2-yl)-2,5-diphenyltetrazolium bromide (MTT) assay (Roche, Indianapolis, Ind.).

C4-2 cells = experiment: as above; assay type: cell-based; conditions: 5 μM peptide, 5% FBS or 10 nM DHT, MTT 4 days
Method: as §1, §2

LAPC4 = conditions: human, 5 μM
Method: (§4) The fluorescence-labeled CPPs (TAT, Penetratin (PENE), KALA, R11 & K11) were synthesized and tested in a variety of PCa cells (LNCaP, C4-2, LAPC4 and PC3 cells). […] Different concentrations of each CPP were incubated with cells for 30 minutes prior to cell harvesting. Relative FITC intensity was determined by normalizing fluorescence intensity of each treatment with its cell numbers. […] R11 (5 μM) was incubated with cells at the indicated time. Relative FITC intensity was determined by normalizing fluorescence intensity of each treatment with its cell numbers. […] Cells were pulsed with R11 (5 μM) chased for the indicated time and the percentage of uptake was used time zero (=100%). Each column or data point represents mean±SD in triplicate. […]
(§5) Therefore, the dynamics of R11 uptake was evaluated by incubating cells with 5 μM R11 for 5, 10 and 30 minutes. […]
(§6) To determine the uptake efficiency of each CPP, different concentrations (0.1, 1, 5 μM) of FITC-tagged peptides were incubated with cells for 30 minutes (or different time for the time course study) then cells were washed twice with PBS and trypsinized. After washing with PBS twice, the total cell number was determined and cells were lysed in Tris Buffer (50 mM Tris-HCl, pH 7.5, 150 mM NaCl, 5 mM EDTA, 1% Triton X100). The fluorescence intensity was examined by fluorometer (excitation 490-500 nm; emission 515-525 nm). […]

[4] = parameters: species or system nude mice; conditions: in vivo
Method: FIGS. 9A-C—Comparison of delivery efficiency between different length of polyarginines. (FIG. 9A) In vitro uptake by bladder cancer cell lines 30 min after incubation. Relative uptake was determined by fluorometer and normalized using R11 5 μM (=1) in each cell line. (FIG. 9B) Animal study (n=3; 24 h post injection). The peptides (5 nmole/gram body weight) were administered via intravenous (IV) route. SV: seminal vesicle; CG: coagulation gland. (FIG. 9C) The tissue localization of FITC-R11 in mouse bladder.
Although the cellular uptake mechanism of CPPs is not completely understood, they were not supposed to have cell specificity. Also, the efficiency of CPPs delivery varies among different species and length. For example, Mai et al. (2002) has reported that the 8-mer and 10-mer of polylysine have higher cell permeable efficiency for a broad range of cell types than polyarginine does. However, the inventors observed that polyarginine is more efficiency than polylysine in bladder cancer cells (FIG. 9A). In order to further determine whether R11 is the best polyarginine for bladder cancer cells, the inventors examined the uptake efficiency using different lengths of polyarginine.

[5] = system: lung metastasis of T24 bladder cancer; conditions: mouse, in vivo
Method: Top right panel, athymic nude mice were chosen based on a similar size of lung metastasis of bladder cancer from BLI were IV injected with 5 nmole FITC-R11 (left) or FITC (right) per gram body weight. Twenty-four hours after injection, whole body imaging (top left panel) or ex vivo imaging (bottom middle and right panel) of lung was carried out with Maestro In-vivo Imaging System (CRI, Inc.). The image shown is one of the representative experiments.

LNCaP [6] = conditions: human, 5 μM
Method: as §4, §5, §6

in vitro = conditions: human
Method: as §4, §5, §6

PC3 = conditions: human, 5 μM
Method: as §4, §5, §6

C4-2 = conditions: human, 5 μM
Method: as §4, §5, §6

[7] = system: MAP kinase (Erk2) activation; experiment: Western blot of phosphorylated Erk1/2 in C4-2 cells; assay type: cell-based
Method: (§3) FIGS. 4A-B—Mechanism of action of R11PPL in PCa cells. To determine the function of R11PPL (SEQ ID NO:11) on interaction of Grb2 with SOS, the C4-2 cell lysates were collected after treated with EGF (FIG. 4A). The GST fusion protein with SH3 domain of Grb2 was used for the pull-down assay. The same amount of immobilized GST-Grb2 (SH3) protein (IB:αGST) was incubated with equal amount of cell lysate in addition of no peptide, the increasing amount of control R11AAL (SEQ ID NO:10) or R11PPL (SEQ ID NO:11) peptide as indicated. The binding of SOS was analyzed with Western Blot using SOS1 antibody. DOC-2/DAB2 expression plasmid transfection was used as a positive control. To examine the effect of R11PPL on MAP kinase activity (FIG. 4B), C4-2 cells were incubated with 5 μM R11PPL, R11AAL or R11 (SEQ ID NO:6) peptide 3 hours before adding EGF (10 ng/ml) (top panel) or 5% FBS (bottom panel). Cell lysates were subjected to western blot analysis probed with phosphorylated Erk1 and 2 antibody (αpErk1/2) or total Erk2 antibody (αErk2) used as a loading control. Each experiment has been repeated twice; this graph represents the typical result.
Western blot analysis. Cells were plated in 6-well plates (2×10^5 per well) with T medium containing 5% FBS. […] The protein intensity was detected using an enhanced chemiluminescence detection kit (Amersham, Piscataway, N.J.). […]

[8] = system: interaction of Grb2 with SOS; experiment: in vitro pull down assay, GST-Grb2 (SH3) binding of SOS; conditions: C4-2 cell lysate after EGF; peptide 10, 30, 100 μM
Method: as §3
In vitro pull down assay. […] The increasing concentrations of peptide (10, 30, 100 μM) for R11PPL or R11AAL were also added during the incubation. […]

protamine sulfate
competition of R11 uptake by GAGs [1]: effectively compete the uptake of R11

^FITC-G-KLALKLALKALKAALKLA ({FITC}-GKLALKLALKALKAALKLA) [KALA, KALA peptide, FITC-labeled]
uptake efficiency among five CPPs (rank) [2]: R11>>KALA≧TAT≧PENE≧K11

pentosan sulfate
competition of R11 uptake by GAGs [1]: effectively compete the uptake of R11

CCN(c1nc(N)c(C(=O)NC(=N)N)nc1Cl)C(C)C [EIPA]
effect of inhibitor on R11 uptake ([1]; pre-treated 2 h, then 5 μM CPPs 30 min): effectively diminish R11 uptake

^FITC-G-RKKRRQRRR (N-terminal FITC-Gly) [TAT, CPP derived from HIV TAT amino acid 49-57, FITC-labeled]
uptake efficiency among five CPPs (rank) [2]: R11>>KALA≧TAT≧PENE≧K11

^FITC-G- RRRRRRRRRRR -GG-FQLRQAALVASRKGE [R11AAL]
uptake of R11, R11AAL and R11PPL compared [2]: very similar
serum or DHT-induced cell proliferation (LNCaP [3]): did not exhibit any effect
serum or DHT-induced cell proliferation (C4-2 cells): did not exhibit any effect

N=C(N)NCCC[C@H](NC(=O)[C@H](CCCNC(=N)N)NC(=O)[C@H](CCCNC(=N)N)NC(=O)[C@H](CCCNC(=N)N)NC(=O)[C@H](CCCNC(=N)N)NC(=O)[C@H](CCCNC(=N)N)NC(=O)[C@H](CCCNC(=N)N)NC(=O)[C@H](CCCNC(=N)N)NC(=O)[C@H](CCCNC(=N)N)NC(=O)[C@H](CCCNC(=N)N)NC(=O)[C@H](CCCNC(=N)N)NC(=O)CNC(=S)Nc1ccc2c(c1)C(=O)OC21c2ccc(O)cc2Oc2cc(O)ccc21)C(=O)O [R11, ^FITC-G-R11]
half-life of R11 (LAPC4): 22.8 h
tissue localization in mouse bladder (histologic examination) [4]: presence of R11 in both transitional and stromal cell compartments of bladder
ex vivo fluorescence signal of lung tumor lesion [5]: clear fluorescence signal is visualized in the ex vivo tumor lesion
half-life of R11 (LNCaP [6]): 23.4 h
half-life at 5 μM (in vitro): 1380 to 1440 min
half-life of R11 (PC3): 24.0 h
half-life of R11 (C4-2): 24.1 h

dextran sulfate
competition of R11 uptake by GAGs [1]: effectively compete the uptake of R11

^FITC-G-RRRRRRRRRRR-GGG-FQLRQPPLVPSRKGE ({FITC}-GRRRRRRRRRRRGGGFQLRQPPLVPSRKGE) [R11PPL, FITC-R11 conjugated with PPL (DOC-2/DAB2 PR domain) at C-terminus]
serum-induced activation of Erk2 ([7]; 5 μM peptide 3 hours before 5% FBS): suppressed
EGF induced activation of Erk2 ([7]; 5 μM peptide 3 hours before EGF 10 ng/ml): could suppress
uptake of R11, R11AAL and R11PPL compared [2]: very similar
serum or DHT-induced cell proliferation (LNCaP [3]): suppressed
serum or DHT-induced cell proliferation (C4-2 cells): suppressed
interaction between Grb2 and SOS [8]: dose-dependent inhibitory effect

B1: DOC-2/DAB2: native protein, expression plasmid transfection used as a positive control in pull-down (protein, UniProt P98082 2-770, looked up)
Disabled homolog 2: SNEVETSATNGQPDQQAAPKAPSKKEKKKGPEKTDEYLLARFKGDGVKYKAKLIGIDDVPDARGDKMSQDSMMKLKGMAAAGRSQGQHKQRIWVNISLSGIKIIDEKTGVIEHEHPVNKISFIARDVTDNRAFGYVCGGEGQHQFFAIKTGQQAEPLVVDLKDLFQVIYNVKKKEEEKKKIEEASKAVENGSEALMILDDQTNKLKSGVDQMDLFGDMSTPPDLNSPTESKDILLVDLNSEIDTNQNSLRENPFLTNGITSCSLPRPTPQASFLPENAFSANLNFFPTPNPDPFRDDPFTQPDQSTPSSFDSLKSPDQKKENSSSSSTPLSNGPLNGDVDYFGQQFDQISNRTGKQEAQAGPWPFSSSQTQPAVRTQNGVSEREQNGFSVKSSPNPFVGSPPKGLSIQNGVKQDLESSVQSSPHDSIAIIPPPQSTKPGRGRRTAKSSANDLLASDIFAPPVSEPSGQASPTGQPTALQPNPLDLFKTSAPAPVGPLVGLGGVTVTLPQAGPWNTASLVFNQSPSMAPGAMMGGQPSGFSQPVIFGTSPAVSGWNQPSPFAASTPPPVPVVWGPSASVAPNAWSTTSPLGNPFQSNIFPAPAVSTQPPSMHSSLLVTPPQPPPRAGPPKDISSDAFTALDPLGDKEIKDVKEMFKDFQLRQPPAVPARKGEQTSSGTLSAFASYFNSKVGIPQENADHDDFDANQLLNKINEPPKPAPRQVSLPVTKSTDNAFENPFFKDSFGSSQASVASSQPVSSEMYRDPFGNPFA
interaction between Grb2 and SOS [8]: inhibited
